Data from patent US20260176285A1, “SALT OF DIOXANE QUINOLINE COMPOUND, CRYSTAL FORM THEREOF, PREPARATION METHODS THEREFOR AND USES THEREOF” (Beijing Scitech-MQ Pharmaceuticals Limited, priority 2022, published 2026).

Legend:
[1] = Hygroscopicity by dynamic moisture sorption (DVS); type: physicochemical; details: DVS, listed as Mucate salt crystal form A-I
Description: Dynamic moisture sorption (DVS): The curves were collected on a DVS Intrinsic of SMS (Surface Measurement Systems). At 25° C., the humidity range was 0% RH-95% RH, the step was 10% (the last step was 5%), and the dm/dt was 0.002%/min.
The hygroscopicity of the free compound of formula (I), mucate salt crystal form A-I, p-toluenesulfonate salt crystal forms A-II and B-III, di-p-toluenesulfonate salt crystal form A-IV and phosphate salt crystal form A-V was evaluated by dynamic moisture sorption instrument (DVS). Starting from 0% relative humidity (0% RH), the test collected the mass change percentage of the samples under constant temperature of 25° C. with humidity changes (0% RH-95% RH-0% RH).

[2] = Dynamic solubility in water, SGF, FaSSIF and FeSSIF; type: physicochemical; design: S (dynamic solubility): unit not given here; details: listed as Mucate salt crystal form A-I; for S (dynamic solubility): 37° C., feed 10 mg/mL
Description: Biological solvent Preparation • 1. […] 67.5 μL of concentrated hydrochloric acid (12 M) was added and the mixture was adjusted to a pH value of 1.8 with 1 M hydrochloric acid or 1 M NaOH solution. Purified water was added to make up to volume. • 2. Preparation of Fasted State Simulated Intestinal Fluid (FaSSIF): 0.17 g of anhydrous NaH2PO4, 0.021 g of NaOH, and 0.31 g of NaCl were weighed into a 50-mL volumetric flask. About 48 mL of purified water was added to dissolve the mixture completely, and the solution was adjusted to a pH value of 6.5 with 1 M hydrochloric acid or 1 M NaOH solution. Purified water was added to make up to volume. 0.11 g of SIF powder was added and dissolved completely. • 3. Preparation of Fed State Simulated Intestinal Fluid (FeSSIF): 0.41 mL of glacial acetic acid, 0.20 g of NaOH and 0.59 g of NaCl were weighed into a 50-mL volumetric flask. About 48 mL of purified water was added to dissolve the mixture completely, and the solution was adjusted to a pH value of 5.0 with 1 M hydrochloric acid or 1 M NaOH solution. Purified water was added to make up to volume. 0.56 g of SIF powder was added and dissolved completely.
The dynamic solubility of the free state, the mucate salt crystal form A-I, the p-toluenesulfonate salt crystal form A-II, the di-p-toluenesulfonate salt crystal form A-IV and the phosphate salt crystal form A-V of the compound of formula (I) in water and three biological solvents was evaluated.
The samples at each time point were centrifuged and filtered (0.45 μm PTFE filter head), and the HPLC concentration and pH value of the filtrate were determined.

[3] = test system: human lung cancer cells EBC-1; test: Efficacy in nude mouse tumor-bearing model of human lung cancer cells EBC-1; type: in vivo, Balb/c nude mouse
Text: In this assay, the free compound of formula (I) of the present application and different salts of the compound prepared in Examples 1, 2 and 5 were orally administered to a nude mouse tumor-bearing model of human lung cancer cells EBC-1 to study their effects on tumor growth.
Preparation of test compounds: an appropriate weight of the test compound (including the free form of the compound of formula (I) and different salts of the compound prepared in Examples 1, 2 and 5) was weighed, completely suspended/dissolved in an appropriate volume of 0.1% sodium carboxymethyl cellulose, stirred and vortexed to give a uniform solution or suspension.
Methods: All assays were authorized by the Animal Welfare Committee. EBC-1 in the logarithmic growth phase was inoculated into immune-deficient nude mice (BALB/c nude, female, 6-8 weeks old, weighing 18±2 g), subcutaneously on the right back, with a cell inoculation amount of 5×10^6/mouse. After the tumor grew to 150-200 mm^3, the animals were randomly divided into groups, 6 mice per group. The dose of each test substance was set at 15 mg/kg and 7.5 mg/kg (both based on the concentration of the effective formula (I) compound), and administered once a day for about 3 weeks. The test compounds were freshly prepared each day before use. During the assay, the tumor diameter was measured twice a week, and the mice were weighed at the same time. The calculation formula of tumor volume (TV) is: TV=1/2×a×b^2, where a and b represent length and width, respectively. The relative tumor volume (RTV) was calculated based on the measurement results, and the calculation formula is: RTV=Vt/V0, wherein V0 is the tumor volume measured at the time of cage grouping and dosing initiation (i.e., d0), and Vt is the tumor volume at each measurement. The evaluation index of antitumor activity is the relative tumor proliferation rate T/C (%), calculated as follows: T/C (%)=(TRTV/CRTV)×100%, TRTV: RTV of the treatment group; CRTV: RTV of the negative control group. T and C represent the average tumor volume at a certain time point in the drug administration group and the control group, respectively.

[4] = Solid-state stability evaluation (XRPD, HPLC); type: physicochemical; details: listed as Mucate salt crystal form A-I
Description: The following 6 test samples were placed under 25° C./60% RH and 40° C./75% RH conditions for 1 week, and then the physical and chemical stability of the samples was tested by XRPD and HPLC.
At the same time, after the p-toluenesulfonate salt crystal form A-II and crystal form B-III solids were placed at 80° C. for 24 hours, the physical and chemical stability of the samples were tested by XRPD and HPLC.

In the case of `O=C(Nc1ccc(F)cc1)C1(C(=O)Nc2ccc(Oc3ccnc4cc(OCCCN5CCOCC5)c5c(c34)OCCO5)c(F)c2)CC1` [Example 1, N-(3-fluoro-4-((5-(3-morpholinopropoxy)-2,3-dihydro-[1,4]dioxano[2,3-f]quinolin-10-yl)oxy)phenyl)-N-(4-fluorophenyl)cyclopropane-1,1-dicarboxamide], the “Moisture adsorption (25° C./80% RH)” value ([1]; 25° C./80% RH) is reported as 2.09%, the Hygroscopicity ([1]; 25° C.) is reported as “Hygroscopic” and the “S (dynamic solubility)” value ([2]; FaSSIF, 1 hour) is reported as 0.0036. The “pH of the filtrate” value ([2]; FaSSIF, 1 hour) was 6.3, the “S (dynamic solubility)” value ([2]; FaSSIF, 2 hours) was 0.0048 and the “pH of the filtrate” value ([2]; FaSSIF, 2 hours) was 6.2. For the same compound, the “S (dynamic solubility)” value ([2]; FaSSIF, 4 hours) was 0.0042, the “pH of the filtrate” value ([2]; FaSSIF, 4 hours) was 6.2 and the “S (dynamic solubility)” value ([2]; FaSSIF, 24 hours) was 0.0070. The “pH of the filtrate” value ([2]; FaSSIF, 24 hours) was 5.5, the “S (dynamic solubility)” value ([2]; FeSSIF, 1 hour) was 1.3 and the “pH of the filtrate” value ([2]; FeSSIF, 1 hour) was 4.9. For the same compound, the “S (dynamic solubility)” value ([2]; FeSSIF, 2 hours) was 1.6, the “pH of the filtrate” value ([2]; FeSSIF, 2 hours) was 4.9 and the “S (dynamic solubility)” value ([2]; FeSSIF, 4 hours) was 1.8. The “pH of the filtrate” value ([2]; FeSSIF, 4 hours) was 4.9, the “S (dynamic solubility)” value ([2]; FeSSIF, 24 hours) was 1.8 and the “pH of the filtrate” value ([2]; FeSSIF, 24 hours) was 4.9. The “S (dynamic solubility)” value ([2]; H2O, 1 hour) was 0.11, the “pH of the filtrate” value ([2]; H2O, 1 hour) was 4.5 and the “S (dynamic solubility)” value ([2]; H2O, 2 hours) was 0.11. The “pH of the filtrate” value ([2]; H2O, 2 hours) was 4.4, the “S (dynamic solubility)” value ([2]; H2O, 4 hours) was 0.13 and the “pH of the filtrate” value ([2]; H2O, 4 hours) was 4.8. For the same compound, the “S (dynamic solubility)” value ([2]; H2O, 24 hours) was 0.11, the “pH of the filtrate” value ([2]; H2O, 24 hours) was 4.7 and the “S (dynamic solubility)” value ([2]; SGF, 1 hour) was 5.4. The “pH of the filtrate” value ([2]; SGF, 1 hour) was 3.1, the “S (dynamic solubility)” value ([2]; SGF, 2 hours) was 5.2 and the “pH of the filtrate” value ([2]; SGF, 2 hours) was 3.1. For the same compound, the “S (dynamic solubility)” value ([2]; SGF, 4 hours) was 5.1, the “pH of the filtrate” value ([2]; SGF, 4 hours) was 3.1 and the “S (dynamic solubility)” value ([2]; SGF, 24 hours) was 5.3. For the same compound, the “pH of the filtrate” value ([2]; SGF, 24 hours) was 3.2, the “T/C (relative tumor proliferation rate)” value ([3]; 7.5 mg/kg oral once a day, day 3) was 71.1% and the “T/C (relative tumor proliferation rate)” value ([3]; 7.5 mg/kg oral once a day, day 7) was 60.2%. The “T/C (relative tumor proliferation rate)” value ([3]; 7.5 mg/kg oral once a day, day 10) was 49.9%, the “T/C (relative tumor proliferation rate)” value ([3]; 7.5 mg/kg oral once a day, day 14) was 46.9% and the “T/C (relative tumor proliferation rate)” value ([3]; 7.5 mg/kg oral once a day, day 18) was 47.4%. For the same compound, the “T/C (relative tumor proliferation rate)” value ([3]; 7.5 mg/kg oral once a day, day 21) was 43.73%, the “T/C (relative tumor proliferation rate)” value ([3]; 15 mg/kg oral once a day, day 3) was 66.3% and the “T/C (relative tumor proliferation rate)” value ([3]; 15 mg/kg oral once a day, day 7) was 40.4%. The “T/C (relative tumor proliferation rate)” value ([3]; 15 mg/kg oral once a day, day 10) was 30.9%, the “T/C (relative tumor proliferation rate)” value ([3]; 15 mg/kg oral once a day, day 14) was 25.3% and the “T/C (relative tumor proliferation rate)” value ([3]; 15 mg/kg oral once a day, day 18) was 25.4%. The “T/C (relative tumor proliferation rate)” value ([3]; 15 mg/kg oral once a day, day 21) was 19.41%, the Purity ([4]; 25° C./60% RH, 1 week) was 99.54 area % and the Purity/initial purity ([4]; 25° C./60% RH, 1 week) was 100.0%. It also gave a Purity ([4]; 40° C./75% RH, 1 week) of 99.56 area %, a Purity/initial purity ([4]; 40° C./75% RH, 1 week) of 100.0% and a Purity ([4]; Starting) of 99.56 area %.
